From ChEMBL document CHEMBL3044866, “A facile and single pot strategy for the synthesis of novel naphthyridine derivatives under microwave irradiation conditions using ZnCl2 as catalyst, evaluation of AChE inhibitory activity, and molecular modeling studies” (Med Chem Res, 2012)

Experiments:
Acetylcholinesterase = Acetylcholinesterase (Homo sapiens, UniProt P22303); assay: Inhibition of AChE (unknown origin) after 10 min by Ellmans method
in vitro [1] = settings: human, THLE2 cells
Description: Cytotoxicity against Homo sapiens (human) THLE2 cells assessed as viable cells at 0.5 uM after 48 hr by MTT assay

in vitro [2] = settings: human, THLE2 cells; remark: listed apart in the source
Description: Cytotoxicity against Homo sapiens (human) THLE2 cells assessed as viable cells at 1 uM after 48 hr by MTT assay

in vitro [3] = settings: human, THLE2 cells; remark: listed apart in the source
Description: Cytotoxicity against Homo sapiens (human) THLE2 cells assessed as viable cells at 10 uM after 48 hr by MTT assay

[4] = Cytotoxicity against Homo sapiens (human) THLE2 cells assessed as cell death at 10 uM after 48 hr by MTT assay; format: cell-based; settings: thle-2, 48 h

Acetylcholinesterase, sequence (P22303 whole entry): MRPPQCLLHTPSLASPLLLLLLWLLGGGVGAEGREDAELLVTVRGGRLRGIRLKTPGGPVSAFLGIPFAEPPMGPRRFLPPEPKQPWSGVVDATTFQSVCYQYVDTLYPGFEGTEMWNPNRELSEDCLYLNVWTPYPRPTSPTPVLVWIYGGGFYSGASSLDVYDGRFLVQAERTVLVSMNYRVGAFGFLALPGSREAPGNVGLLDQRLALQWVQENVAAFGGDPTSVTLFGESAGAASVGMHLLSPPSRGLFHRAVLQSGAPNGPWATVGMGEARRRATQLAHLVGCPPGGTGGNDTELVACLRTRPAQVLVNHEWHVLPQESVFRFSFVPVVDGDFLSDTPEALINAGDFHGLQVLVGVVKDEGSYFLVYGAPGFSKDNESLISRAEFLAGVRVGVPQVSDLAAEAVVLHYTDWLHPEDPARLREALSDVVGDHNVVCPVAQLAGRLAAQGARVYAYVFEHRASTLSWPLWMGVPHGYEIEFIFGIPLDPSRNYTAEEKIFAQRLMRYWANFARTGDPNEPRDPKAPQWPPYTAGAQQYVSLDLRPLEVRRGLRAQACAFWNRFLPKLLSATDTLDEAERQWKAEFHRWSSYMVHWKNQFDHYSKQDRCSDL

| Structure (SMILES) | IC50 (Acetylcholinesterase) | other results |
| --- | --- | --- |
| COc1ccc(-c2cc(N)c3c(C(F)(F)F)cc(-c4ccccc4)nc3n2)cc1 | 8.24 µM |  |
| Nc1cc(-c2cccs2)nc2nc(-c3ccccc3)cc(C(F)(F)F)c12 | 10.4 µM |  |
| Nc1c2c(nc3nc(-c4ccccc4)cc(C(F)(F)F)c13)CCCCC2 | 10.1 µM |  |
| Nc1c2c(nc3nc(-c4ccccc4)cc(C(F)(F)F)c13)CCCCCC2 | 7.69 µM |  |
| Nc1c2c(nc3nc(-c4ccccc4)cc(C(F)(F)F)c13)CCC2 | 8.05 µM |  |
| CC1CCc2nc3nc(-c4ccccc4)cc(C(F)(F)F)c3c(N)c2C1 (centres undefined) | 0.51 µM |  |
| Nc1cc(-c2ccc(F)cc2)nc2nc(-c3ccccc3)cc(C(F)(F)F)c12 | 6.58 µM |  |
| CC1CCc2c(nc3nc(-c4ccccc4)cc(C(F)(F)F)c3c2N)C1 (centres undefined) | 3.25 µM |  |
| Nc1cc(-c2ccc(Cl)cc2)nc2nc(-c3ccccc3)cc(C(F)(F)F)c12 | 0.52 µM | viability at 48 h, 0.5 µM (in vitro [1]): 97.1%; viability at 48 h, 1 µM (in vitro [2]): 98.1%; viability at 48 h, 10 µM (in vitro [3]): 84.2%; Activity [4]: 16% |
| CC(C)Cc1cc(N)c2c(C(F)(F)F)cc(-c3ccccc3)nc2n1 | 19.1 µM |  |
| Nc1c2c(nc3nc(-c4ccccc4)cc(C(F)(F)F)c13)-c1ccccc1C2 | 17.6 µM |  |
| Nc1c2c(nc3nc(-c4ccccc4)cc(C(F)(F)F)c13)CCCC2 | 0.35 µM |  |
| Nc1cc(-c2ccccc2Br)nc2nc(-c3ccccc3)cc(C(F)(F)F)c12 | 0.89 µM | viability at 48 h, 0.5 µM (in vitro [1]): 98.7%; viability at 48 h, 1 µM (in vitro [2]): 95.9%; viability at 48 h, 10 µM (in vitro [3]): 99.9% |
| Nc1cc(-c2cccc(F)c2)nc2nc(-c3ccccc3)cc(C(F)(F)F)c12 | 7.03 µM |  |
| CC1Cc2nc3nc(-c4ccccc4)cc(C(F)(F)F)c3c(N)c2C1 (centres undefined) | 9.37 µM |  |
| Nc1c2c(nc3nc(-c4ccccc4)cc(C(F)(F)F)c13)-c1ccccc1CC2 | 23.1 µM |  |
| Nc1cc(-c2ccccc2)nc2nc(-c3ccccc3)cc(C(F)(F)F)c12 | 7.1 µM |  |
